Like-named read-outs stand apart in the source and are kept apart here.

Experimental findings from patent US20250011330A1, “Imidazo[1,2- a]pyrazine and Imidazo[1,2- a]pyridine Based Tyrosyl-DNA Phosphodiesterase I (TDP1) Inhibitors” (The USA, As Represented by the Secretary, Department of …, priority 2021, published 2025) are described below.

Experiment [1] has as its target T1, TDP2 (Homo sapiens (Human), UniProt O95551). In words: TDP2 degrading activity as stated in the description. To be noted: list in description.
The target in experiment [2] is T1, TDP2. Nature of the experiment: gel-based TDP2 fluorescence assay in vitro. In kind it is biochemical. The conditions noted are these: read-out: TDP2 IC50. The method, then: (§1) (TDP assay buffer: 50 mM Tris HCl, pH 7.5, 80 mM KCl, 2 mM EDTA, 1 mM DTT, 40 μg/ml BSA and 0.01% Tween-20. TDP1 (20 mg/mL in 25 mM Tris-HCl pH 7.2, 150 mM NaCl, 2 mM tris(2-carboxyethyl)phosphine) with 2 mL of well solution composed of 0.1 M MOPS/HEPES pH 7.5, 10% (w/v) PEG 8000, 20% (v/v) ethylene glycol, 0.03 M sodium fluoride, 0.03 M sodium bromide, 0.03 M sodium iodide, 0.03 M sodium bromide and sealed over […] well solution. AF647 labelling buffer: Tris-HCl (pH 7.2, 25 mM), NaCl (150 mM), and tris(2-carboxyethyl)phosphine hydrochloride (TCEP, 2 mM).)
(§2) (DNA only: Buffer+DMSO. DMSO only: Enzyme+DMSO. Drug: Enzyme+Drug, 25° C., 10 min+DNA, reaction at 25° C., 15 min.)

Experiment [3] has as its system human colon cancer cell line HCT116. Nature of the experiment: Synergistic effect with camptothecin (CPT) based on cell viability. To be noted: for synergy with camptothecin: list in description; for Synergy Score: with camptothecin (CPT), HCT116, 72 h, SynergyFinder 2.0. The method, then:
The synergistic effects of the TDP1 inhibitors with CPT were tested in human colon cancer cell line HCT116 based on cell viability (Table 3, FIGS. 2-5). Cells were first seeded in a 384-well black-clear plate until 30% confluency and then incubated with a serial dilution of CPT at the range of 0-100 nM in the present or the absence of TDP1 inhibitors for 72 h at 37° C. Viable cell numbers were counted from the brightfield images taken by Biotek Cytation 5 (FIGS. 2-3). Fractional affect (Fa) and combination index (Ci) were analyzed with CompuSyn software. Synergistic scores of each TDP1 inhibitors were calculated and collected based on the data analysis from SynergyFinder (FIG. 4). […]

The target of experiment [4] is T2, TDP1 (Homo sapiens (Human), UniProt Q9NUW8). Nature of the experiment: TDP1 gel-based in vitro fluorescence assay. Type of experiment: biochemical. To be noted: for FC (fold change): Table 7, ratio of IC50 TDP2 to TDP1. The method, then: as §1, §2
Gel images were scanned using a Typhoon FLA 9500 scanner (GE Healthcare) and densitometric analyses were performed using the ImageQuant software (GE Healthcare). The IC50 of TDP1 inhibitors was calculated by comparing the percentage of cleavage product (5′Cy5-[…]-p-3′) to DMSO control.

Experiment [5] concerns the target T2, TDP1. In words: Degradation assay (western blotting) of TDP1 in HCT116 and HEK293 cells. In kind it is cell-based. To be noted: for TDP1 degradation in cells: 200 uM concentration; for TDP1 degrading activity: list in description. The method, then: The degradation effect of the TDP1 inhibitors on TDP1 in human colon cancer cell line HCT116 and embryonic kidney cell line HEK293 were studied. Cells were first seeded in a 6-well plate until 60-80% confluency and then incubated with a serial dilution of TDP1 inhibitors at the range of 25-200 μM for 24-72 h at 37° C. […] Samples were then sonicated at 30% for 10 s and centrifuged for 15 min at 15000 rpm at 4 Celsius. Supernatant were collected and the concentration of total protein were measured by BCA Protein Assay Kit according to its protocols. Four micrograms of total protein for each sample were loaded and TDP1 level were conducted by western blotting.

Setting [6] is: Table 8, lead compounds with different linkers.
Setting [7] is: Table 1, imidazo[1,2-a]pyridin-3-amines, read-out: IC50.
Setting [8] is: Table 7, HPLC-purified oxime leads.
Setting [9] is: Table 8, lead compounds with different linkers, read-out: TDP1 IC50.
[10] abbreviates: Table 10, PROTACs, read-out: TDP1 IC50.

T1 sequence (O95551 whole entry, species assumed): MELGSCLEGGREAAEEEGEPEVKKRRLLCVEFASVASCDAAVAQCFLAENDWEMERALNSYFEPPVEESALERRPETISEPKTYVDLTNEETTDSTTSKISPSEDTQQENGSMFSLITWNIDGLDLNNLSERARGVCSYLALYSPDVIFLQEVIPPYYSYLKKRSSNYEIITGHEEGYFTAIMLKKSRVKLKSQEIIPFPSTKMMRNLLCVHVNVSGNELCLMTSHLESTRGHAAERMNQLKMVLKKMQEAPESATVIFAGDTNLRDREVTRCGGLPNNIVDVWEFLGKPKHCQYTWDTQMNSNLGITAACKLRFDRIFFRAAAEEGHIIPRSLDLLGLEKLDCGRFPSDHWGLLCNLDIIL
T2 sequence (Q9NUW8 whole entry): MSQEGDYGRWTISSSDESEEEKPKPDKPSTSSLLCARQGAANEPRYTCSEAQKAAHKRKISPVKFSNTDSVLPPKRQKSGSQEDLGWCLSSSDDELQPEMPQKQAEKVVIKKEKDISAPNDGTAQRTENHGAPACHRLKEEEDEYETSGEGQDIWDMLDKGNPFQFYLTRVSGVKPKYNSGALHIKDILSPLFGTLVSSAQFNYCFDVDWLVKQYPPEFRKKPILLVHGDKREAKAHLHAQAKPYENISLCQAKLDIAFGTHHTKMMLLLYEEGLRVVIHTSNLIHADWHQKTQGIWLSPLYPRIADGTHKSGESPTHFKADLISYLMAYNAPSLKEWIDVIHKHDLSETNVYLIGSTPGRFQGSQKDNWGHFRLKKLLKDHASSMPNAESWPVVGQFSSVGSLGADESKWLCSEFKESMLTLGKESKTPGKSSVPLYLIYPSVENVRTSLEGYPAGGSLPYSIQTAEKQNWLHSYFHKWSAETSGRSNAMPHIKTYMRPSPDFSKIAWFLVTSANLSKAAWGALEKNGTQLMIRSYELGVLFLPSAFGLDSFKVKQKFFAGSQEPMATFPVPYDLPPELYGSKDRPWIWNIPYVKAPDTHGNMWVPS

For “4-((2-(4-(2-((4-(5-((λ^2-Azaneylidene)-λ^3-methyl)pyridin-2-yl)phenyl)methoxy)ethyl)phenyl)imidazo[1,2-a]pyridin-3-yl)amino)benzoic acid [XZ727]”, the TDP2 degrading activity result on TDP2 [1] is reported as “exhibit TDP2 degrading activity”. Besides, the IC50 on TDP2 [2] (setting [6]) came to 70.5 ± 13.5 µM.
Regarding `CS(=O)(=O)c1ccc2nc(-c3ccccc3)c(Nc3ccc([N+](=O)[O-])cc3)n2c1` [Compound 6u, 6-(Methylsulfonyl)-N-(4-nitrophenyl)-2-phenylimidazo[1,2-a]pyridin-3-amine], the synergy with camptothecin entry in experiment [3] is recorded as “exhibit synergy with camptothecin”. The IC50 on TDP1 [4] (setting [7]) came to 16.1 µM.
`O=C(O)c1ccc(Nc2c(-c3ccccc3)nc3cnccn23)cc1` [Compound 7b, 4-((2-Phenylimidazo[1,2-a]pyrazin-3-yl)amino)benzoic acid]: the “Synergy Score” value in experiment [3] turned out to be 3. On TDP2 [2] (Table 3), the IC50 was greater than 100 µM.
With `O=C(O)c1ccc(Nc2c(-c3ccccc3)nc3ccccn23)cc1` [Compound 8a, 4-((2-Phenylimidazo[1,2-a]pyridin-3-yl)amino)benzoic acid], the “Synergy Score” value in experiment [3] is given as −1.3. For the same compound, the IC50 on TDP2 [2] (Table 3) is greater than 100 µM.
Regarding `O=C(O)c1ccc(Nc2c(-c3ccccc3)nc3ccc(C(=O)O)cn23)cc1` [Compound 8m, 3-((4-Carboxyphenyl)amino)-2-phenylimidazo[1,2-a]pyridine-6-carboxylic acid], the synergy with camptothecin entry in experiment [3] is reported as “exhibit synergy with camptothecin”. For the same compound, the IC50 on TDP1 [4] (setting [7]) came to 0.9 µM.
The like results for `O=C(O)c1ccc(Nc2c(-c3ccccc3)nc3ccc(Br)cn23)cc1` [Compound 8o, 4-((6-Bromo-2-phenylimidazo[1,2-a]pyridin-3-yl)amino)benzoic acid] were, in that order, “exhibit synergy with camptothecin” and 1.6 µM.
As for `CS(=O)(=O)c1ccc2nc(-c3ccccc3)c(Nc3ccc(C(=O)O)cc3)n2c1` [Compound 8q, 4-((6-(Methylsulfonyl)-2-phenylimidazo[1,2-a]pyridin-3-yl)amino)benzoic acid], the “Synergy Score” value in experiment [3] was determined as 9.5. The “TDP1 Selectivity” value on TDP1 [4] (ratio of IC50 values of TDP1/TDP2) is listed as 26.
`O=C(O)c1ccc(Nc2c(-c3ccccc3)nc3cc(C(=O)O)ccn23)cc1` [Compound 8s, 3-((4-Carboxyphenyl)amino)-2-phenylimidazo[1,2-a]pyridine-7-carboxylic acid]: in experiment [3], the synergy with camptothecin result is listed as “exhibit synergy with camptothecin” and the “Synergy Score” value was found to be 20.7. Also, at TDP2 [2] (Table 3), the IC50 was greater than 100 µM.
The like results for `O=C(O)c1ccc(Nc2c(-c3ccccc3)nc3ccccn23)cc1C(=O)O` [Compound 10b, 4-((2-Phenylimidazo[1,2-a]pyridin-3-yl)amino)phthalic acid] were, in that order, “exhibit synergy with camptothecin”, 17.9 and greater than 100 µM.
On to `O=C(O)c1ccc(Nc2c(-c3ccccc3O)nc3cnccn23)cc1` [Compound M7], for which, in experiment [3], the synergy with camptothecin result is reported as “exhibit synergy with camptothecin” and the “Synergy Score” value amounted to 15.6.
Consider `O=C(O)c1ccc(Nc2c(-c3ccccc3)nc3ccccn23)cc1` [XZ615], for which, on TDP1 [5], the “TDP1 degradation in cells” value is “does not” and the TDP1 degrading activity result is “exhibit TDP1 degrading activity”. Further, the IC50 at TDP2 [2] (setting [8]) is greater than 100 µM. In addition, the IC50 on TDP2 [2] (setting [6]) was greater than 100 µM.
In the case of `O=C(O)c1ccc(Nc2c(-c3ccccc3)nc3cc(-c4ccccc4)ccn23)cc1` [XZ664, 4-((2,7-Diphenylimidazo[1,2-a]pyridin-3-yl)amino)benzoic acid], the “TDP1 degradation in cells” value at TDP1 [5] is “shows TDP1 degradation”. Moreover, the TDP1 degrading activity entry at TDP1 [5] was “exhibit TDP1 degrading activity”. In experiment [3], the “Synergy Score” value stood at 9.1. In addition, the IC50 at TDP2 [2] (Table 3), at TDP2 [2] (setting [8]) and at TDP2 [2] (setting [6]) was greater than 100 µM each time.
With `N#Cc1ccc(-c2ccc(/C=N/OCc3ccc4nc(-c5ccccc5)c(Nc5ccc(C(=O)O)cc5)n4c3)cc2)nc1` [XZ706, (E)-4-((6-((((4-(5-cyanopyridin-2-yl)benzylidene)amino)oxy)methyl)-2-phenylimidazo[1,2-a]pyridin-3-yl)amino)benzoic acid], the synergy with camptothecin result in experiment [3] is given as “exhibit synergy with camptothecin”. The IC50 at TDP1 [4] (Table 7, HPLC-purified oxime leads, read-out: TDP1 IC50) worked out at 17.4 ± 3.2 µM; on TDP2 [2] (setting [8]), 62.1 ± 10.1 µM. Further, the “FC (fold change)” value at TDP1 [4] is 4. Further, on TDP1 [4] (fold loss versus 102), the “loss of TDP1 potency relative to 102” value is recorded as “about 2 fold”.
Consider `N#Cc1ccc(-c2ccc(/C=N\OCc3ccc(-c4nc5cc(-c6ccccc6)ccn5c4Nc4ccc(C(=O)O)cc4)cc3)cc2)nc1` [XZ708, (Z)-4-((2-(4-((((4-(5-Cyanopyridin-2-yl)benzylidene)amino)oxy)methyl)phenyl)-7-phenylimidazo[1,2-a]pyridin-3-yl)amino)benzoic acid], for which the synergy with camptothecin result in experiment [3] is on record as “exhibit synergy with camptothecin”. Further, the “FC (fold change)” value at TDP1 [4] is on record as greater than 18. Besides, the IC50 on TDP2 [2] (setting [8]) is greater than 100 µM.
On to `N#Cc1ccc(-c2ccc(CO/N=C/c3ccc(-c4nc5ccccn5c4Nc4ccc(C(=O)O)cc4)cc3)cc2)nc1` [XZ724], for which, on TDP1 [5], the TDP1 degrading activity result was “exhibit TDP1 degrading activity”. Besides, the IC50 on TDP1 [4] (setting [9]) and on TDP2 [2] (setting [6]) was greater than 100 µM each time.
As to `N#Cc1ccc(-c2ccc(CO/N=C/c3ccc(-c4nc5cc(-c6ccccc6)ccn5c4Nc4ccc(C(=O)O)cc4)cc3)cc2)nc1` [XZ725], the TDP1 degrading activity result on TDP1 [5] is listed as “exhibit TDP1 degrading activity”. Further, the synergy with camptothecin result in experiment [3] was “exhibit synergy with camptothecin”. Further, the IC50 on TDP1 [4] (setting [9]) was 25.6 ± 4.05 µM; at TDP2 [2] (setting [6]), greater than 100 µM.
Regarding `O=S(=O)(F)c1ccc(Nc2c(-c3ccccc3)nc3ccccn23)cc1` [XZ734, 4-((2-Phenylimidazo[1,2-a]pyridin-3-yl)amino)benzenesulfonyl fluoride], the “TDP1 degradation by covalent inhibitors” value on TDP1 [5] (FIG. 39) is listed as “degrade TDP1”. For the same compound, the TDP1 degrading activity entry at TDP1 [5] was “exhibit TDP1 degrading activity”. The half-inhibitory concentration (IC50) at TDP1 [4] (Table 9, fluorosulfates and sulfonyl fluorides, read-out: TDP1 IC50) is greater than 100 µM; at TDP2 [2] (Table 9, fluorosulfates and sulfonyl fluorides), greater than 100 µM.
Take `O=C1CCC(N2C(=O)c3cccc(OCCOCCOCc4cn(Cc5ccc(-c6nc7cc(-c8ccccc8)ccn7c6Nc6ccc(C(=O)O)cc6)cc5)nn4)c3C2=O)C(=O)N1` (stereo not shown) [XZ743, 4-((2-(4-((4-((2-(2-((2-(2,6-Dioxopiperidin-3-yl)-1,3-dioxoisoindolin-4-yl)oxy)ethoxy)ethoxy)methyl)-1H-1,2,3-triazol-1-yl)methyl)phenyl)-7-phenylimidazo[1,2-a]pyridin-3-yl)amino)benzoic acid]: the IC50 on TDP1 [4] (setting [10]) is greater than 100 µM; on TDP2 [2] (Table 10, PROTACs), greater than 100 µM.
`O=C1CCC(N2C(=O)c3cccc(NCCc4cn(Cc5ccc(-c6nc7cc(-c8ccccc8)ccn7c6Nc6ccc(C(=O)O)cc6)cc5)nn4)c3C2=O)C(=O)N1` (stereo not shown) [XZ749, 4-((2-(4-((4-(2-((2-(2,6-Dioxopiperidin-3-yl)-1,3-dioxoisoindolin-4-yl)amino)ethyl)-1H-1,2,3-triazol-1-yl)methyl)phenyl)-7-phenylimidazo[1,2-a]pyridin-3-V)amino)benzoic acid]: the IC50 at TDP1 [4] (setting [10]) was 12.3 ± 1.5 µM; at TDP2 [2] (Table 10, PROTACs) it was 16.8 ± 0.3 µM.

As a reminder, the IC50 is the midpoint of a concentration-inhibition curve.
